According to ChEMBL document CHEMBL3991601, “The target landscape of clinical kinase drugs” (Science, 2017):
Activity calls are given as the source filed them. Cut-off read from the data, not from the text of the source, for most assays here: actives have a measured Kd and inactives only a lower limit.

How the values were obtained:
[1] = target: Bone morphogenetic protein receptor type-1A (Homo sapiens, UniProt P36894)
[2] = target: Dual specificity protein kinase CLK2 (Homo sapiens, UniProt P49760)
[3] = target: Tyrosine-protein kinase BTK (Homo sapiens, UniProt Q06187)
[4] = target: T1, Adenine phosphoribosyltransferase (Homo sapiens, UniProt P07741)
T1 sequence (P07741 whole entry): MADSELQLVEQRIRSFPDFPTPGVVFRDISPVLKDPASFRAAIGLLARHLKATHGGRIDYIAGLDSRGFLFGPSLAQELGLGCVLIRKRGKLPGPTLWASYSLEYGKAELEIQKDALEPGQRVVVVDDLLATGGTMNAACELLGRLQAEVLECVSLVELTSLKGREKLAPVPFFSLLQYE

[5] = target: Serine/threonine-protein kinase SIK3 (Homo sapiens, UniProt Q9Y2K2)
[6] = target: Ephrin type-A receptor 2 (Homo sapiens, UniProt P29317)
[7] = target: Dual specificity tyrosine-phosphorylation-regulated kinase 1A (Homo sapiens, UniProt Q13627)
[8] = target: T2, Glycine--tRNA ligase (Homo sapiens, UniProt P41250)
T2 sequence (P41250 whole entry): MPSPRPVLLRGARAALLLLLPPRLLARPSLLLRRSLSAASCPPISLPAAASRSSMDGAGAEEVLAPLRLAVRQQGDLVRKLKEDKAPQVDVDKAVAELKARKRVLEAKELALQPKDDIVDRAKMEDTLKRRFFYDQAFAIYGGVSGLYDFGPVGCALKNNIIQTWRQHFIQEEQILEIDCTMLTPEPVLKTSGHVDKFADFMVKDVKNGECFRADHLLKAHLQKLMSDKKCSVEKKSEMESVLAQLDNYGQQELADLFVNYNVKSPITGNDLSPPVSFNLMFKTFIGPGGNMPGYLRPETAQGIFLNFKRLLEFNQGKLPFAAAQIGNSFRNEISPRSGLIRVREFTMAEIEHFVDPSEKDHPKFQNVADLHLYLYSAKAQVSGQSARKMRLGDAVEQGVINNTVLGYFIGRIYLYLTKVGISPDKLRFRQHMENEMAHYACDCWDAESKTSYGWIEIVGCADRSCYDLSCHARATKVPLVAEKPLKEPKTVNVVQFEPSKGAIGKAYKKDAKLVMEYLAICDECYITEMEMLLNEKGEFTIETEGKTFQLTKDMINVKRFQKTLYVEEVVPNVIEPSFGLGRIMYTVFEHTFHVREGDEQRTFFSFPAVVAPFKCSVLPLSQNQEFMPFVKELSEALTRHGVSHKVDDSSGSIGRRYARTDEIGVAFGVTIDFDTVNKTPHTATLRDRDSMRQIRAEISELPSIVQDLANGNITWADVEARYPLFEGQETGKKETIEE

[9] = target: Tyrosine-protein kinase Fer (Homo sapiens, UniProt P16591)
[10] = target: Ephrin type-A receptor 5 (Homo sapiens, UniProt P54756)
[11] = target: Protein kinase C beta type (Homo sapiens, UniProt P05771)
[12] = target: Tyrosine-protein kinase ABL1 (Homo sapiens, UniProt P00519)
[13] = target: T3, Rab-like protein 3 (Homo sapiens, UniProt Q5HYI8)
T3 sequence (Q5HYI8 whole entry): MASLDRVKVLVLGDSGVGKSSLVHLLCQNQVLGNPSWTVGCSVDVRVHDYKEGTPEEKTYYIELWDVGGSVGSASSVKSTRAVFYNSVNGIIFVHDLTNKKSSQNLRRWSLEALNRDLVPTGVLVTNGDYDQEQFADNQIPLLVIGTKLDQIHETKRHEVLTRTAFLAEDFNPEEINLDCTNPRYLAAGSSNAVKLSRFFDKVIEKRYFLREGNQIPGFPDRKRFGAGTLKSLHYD

[14] = target: Dual specificity mitogen-activated protein kinase kinase 1 (Homo sapiens, UniProt Q02750)
[15] = target: Serine/threonine-protein kinase MRCK gamma (Homo sapiens, UniProt Q6DT37)
[16] = target: T4, Serine/threonine-protein kinase TBK1 (Homo sapiens, UniProt Q9UHD2)
T4 sequence (Q9UHD2 whole entry): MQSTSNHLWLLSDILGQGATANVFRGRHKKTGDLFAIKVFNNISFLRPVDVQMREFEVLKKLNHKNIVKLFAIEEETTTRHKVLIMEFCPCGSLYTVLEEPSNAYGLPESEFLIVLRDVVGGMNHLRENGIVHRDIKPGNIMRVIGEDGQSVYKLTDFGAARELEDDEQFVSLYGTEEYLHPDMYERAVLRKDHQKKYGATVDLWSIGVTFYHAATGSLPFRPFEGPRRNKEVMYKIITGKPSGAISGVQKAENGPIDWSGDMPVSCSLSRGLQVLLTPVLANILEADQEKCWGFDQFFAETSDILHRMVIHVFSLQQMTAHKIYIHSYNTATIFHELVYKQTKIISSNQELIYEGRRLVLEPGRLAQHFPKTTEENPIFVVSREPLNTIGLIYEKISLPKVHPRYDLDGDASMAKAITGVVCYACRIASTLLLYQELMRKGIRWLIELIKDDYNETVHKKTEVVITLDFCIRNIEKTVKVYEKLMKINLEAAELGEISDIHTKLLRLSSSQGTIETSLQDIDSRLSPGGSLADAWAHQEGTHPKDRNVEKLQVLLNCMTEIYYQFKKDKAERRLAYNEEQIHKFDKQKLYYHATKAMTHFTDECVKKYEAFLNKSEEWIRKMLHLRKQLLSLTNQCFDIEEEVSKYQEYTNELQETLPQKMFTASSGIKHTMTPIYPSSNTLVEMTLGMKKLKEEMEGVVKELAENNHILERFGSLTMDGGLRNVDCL

[17] = target: Atypical kinase COQ8A, mitochondrial (Homo sapiens, UniProt Q8NI60)
Note: in the data inactive means no Kd found up to 30 µM.

Bone morphogenetic protein receptor type-1A, sequence (P36894 whole entry): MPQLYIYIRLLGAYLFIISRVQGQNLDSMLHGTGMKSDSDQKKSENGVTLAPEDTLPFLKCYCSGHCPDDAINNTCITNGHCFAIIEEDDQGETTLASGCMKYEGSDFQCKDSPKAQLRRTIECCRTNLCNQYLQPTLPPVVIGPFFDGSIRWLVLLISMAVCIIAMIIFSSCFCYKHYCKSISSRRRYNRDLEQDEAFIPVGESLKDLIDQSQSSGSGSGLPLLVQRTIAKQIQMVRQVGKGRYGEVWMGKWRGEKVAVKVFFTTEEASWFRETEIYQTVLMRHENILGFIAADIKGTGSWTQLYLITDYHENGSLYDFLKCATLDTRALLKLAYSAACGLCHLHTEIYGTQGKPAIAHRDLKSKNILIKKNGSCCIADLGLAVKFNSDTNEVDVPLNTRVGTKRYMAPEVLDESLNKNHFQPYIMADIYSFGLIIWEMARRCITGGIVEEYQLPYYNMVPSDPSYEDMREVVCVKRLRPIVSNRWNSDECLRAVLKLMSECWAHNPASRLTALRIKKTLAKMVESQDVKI
Tyrosine-protein kinase BTK, sequence (Q06187 whole entry): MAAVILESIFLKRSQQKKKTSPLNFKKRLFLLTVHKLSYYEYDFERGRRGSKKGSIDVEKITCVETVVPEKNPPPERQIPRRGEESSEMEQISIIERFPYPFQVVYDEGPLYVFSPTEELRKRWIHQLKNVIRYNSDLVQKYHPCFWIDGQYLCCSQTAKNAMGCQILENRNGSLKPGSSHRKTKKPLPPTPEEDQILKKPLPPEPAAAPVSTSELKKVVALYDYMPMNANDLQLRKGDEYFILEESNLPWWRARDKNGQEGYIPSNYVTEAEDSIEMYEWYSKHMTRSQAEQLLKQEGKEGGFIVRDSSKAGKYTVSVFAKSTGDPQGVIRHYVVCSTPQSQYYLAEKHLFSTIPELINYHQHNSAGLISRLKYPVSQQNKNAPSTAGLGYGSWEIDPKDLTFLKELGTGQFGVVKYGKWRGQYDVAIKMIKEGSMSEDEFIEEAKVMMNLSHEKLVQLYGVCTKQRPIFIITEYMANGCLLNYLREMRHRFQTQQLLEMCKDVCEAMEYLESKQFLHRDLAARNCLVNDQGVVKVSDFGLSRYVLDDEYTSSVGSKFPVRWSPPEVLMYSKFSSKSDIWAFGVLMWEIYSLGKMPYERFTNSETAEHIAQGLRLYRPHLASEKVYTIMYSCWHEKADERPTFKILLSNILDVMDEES
Tyrosine-protein kinase Fer, sequence (P16591 whole entry): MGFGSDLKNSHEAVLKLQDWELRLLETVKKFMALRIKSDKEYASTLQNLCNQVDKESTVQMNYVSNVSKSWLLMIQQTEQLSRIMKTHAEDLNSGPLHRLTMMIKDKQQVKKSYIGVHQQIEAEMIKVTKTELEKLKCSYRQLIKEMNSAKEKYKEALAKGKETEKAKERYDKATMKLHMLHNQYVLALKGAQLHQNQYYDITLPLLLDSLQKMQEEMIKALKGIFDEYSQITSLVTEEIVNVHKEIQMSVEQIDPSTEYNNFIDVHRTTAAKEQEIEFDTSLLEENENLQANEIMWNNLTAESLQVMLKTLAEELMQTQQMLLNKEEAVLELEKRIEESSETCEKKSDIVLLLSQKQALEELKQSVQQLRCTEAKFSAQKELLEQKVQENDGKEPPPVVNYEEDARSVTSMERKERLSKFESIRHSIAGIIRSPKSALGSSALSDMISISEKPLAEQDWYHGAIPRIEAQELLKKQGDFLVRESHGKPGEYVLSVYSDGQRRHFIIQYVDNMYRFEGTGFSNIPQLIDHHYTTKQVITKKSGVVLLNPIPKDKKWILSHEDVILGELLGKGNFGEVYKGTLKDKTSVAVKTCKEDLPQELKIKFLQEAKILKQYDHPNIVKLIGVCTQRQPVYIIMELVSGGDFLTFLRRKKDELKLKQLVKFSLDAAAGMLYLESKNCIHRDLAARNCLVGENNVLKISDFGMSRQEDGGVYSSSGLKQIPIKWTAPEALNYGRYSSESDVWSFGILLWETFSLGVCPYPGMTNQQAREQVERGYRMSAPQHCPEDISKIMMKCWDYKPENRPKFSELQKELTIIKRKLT
Ephrin type-A receptor 2, sequence (P29317 whole entry): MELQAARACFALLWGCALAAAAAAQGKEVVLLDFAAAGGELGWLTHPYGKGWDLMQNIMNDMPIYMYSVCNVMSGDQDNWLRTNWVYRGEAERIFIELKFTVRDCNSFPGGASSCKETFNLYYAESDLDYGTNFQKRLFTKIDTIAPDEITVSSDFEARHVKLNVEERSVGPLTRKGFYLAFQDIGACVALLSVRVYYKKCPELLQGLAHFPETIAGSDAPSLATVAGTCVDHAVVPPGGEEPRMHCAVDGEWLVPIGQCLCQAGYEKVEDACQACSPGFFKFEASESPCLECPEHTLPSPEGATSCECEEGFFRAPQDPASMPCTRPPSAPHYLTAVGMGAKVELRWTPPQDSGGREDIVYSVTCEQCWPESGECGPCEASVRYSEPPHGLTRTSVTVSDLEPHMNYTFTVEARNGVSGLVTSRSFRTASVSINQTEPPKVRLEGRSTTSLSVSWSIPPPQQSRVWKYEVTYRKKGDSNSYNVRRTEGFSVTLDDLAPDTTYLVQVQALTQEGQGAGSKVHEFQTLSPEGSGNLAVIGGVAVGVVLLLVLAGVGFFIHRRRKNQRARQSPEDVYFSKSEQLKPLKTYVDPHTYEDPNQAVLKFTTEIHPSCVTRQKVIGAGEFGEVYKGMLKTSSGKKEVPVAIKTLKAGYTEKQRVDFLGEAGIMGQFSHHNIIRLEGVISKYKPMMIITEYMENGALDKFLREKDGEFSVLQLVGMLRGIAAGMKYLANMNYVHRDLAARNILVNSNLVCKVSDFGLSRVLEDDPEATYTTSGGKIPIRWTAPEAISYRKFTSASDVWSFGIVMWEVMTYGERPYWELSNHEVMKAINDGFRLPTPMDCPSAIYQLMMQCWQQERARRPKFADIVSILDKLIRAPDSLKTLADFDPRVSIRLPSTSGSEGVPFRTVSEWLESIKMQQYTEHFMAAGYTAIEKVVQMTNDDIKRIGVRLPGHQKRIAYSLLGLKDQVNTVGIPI
Dual specificity protein kinase CLK2, sequence (P49760 whole entry): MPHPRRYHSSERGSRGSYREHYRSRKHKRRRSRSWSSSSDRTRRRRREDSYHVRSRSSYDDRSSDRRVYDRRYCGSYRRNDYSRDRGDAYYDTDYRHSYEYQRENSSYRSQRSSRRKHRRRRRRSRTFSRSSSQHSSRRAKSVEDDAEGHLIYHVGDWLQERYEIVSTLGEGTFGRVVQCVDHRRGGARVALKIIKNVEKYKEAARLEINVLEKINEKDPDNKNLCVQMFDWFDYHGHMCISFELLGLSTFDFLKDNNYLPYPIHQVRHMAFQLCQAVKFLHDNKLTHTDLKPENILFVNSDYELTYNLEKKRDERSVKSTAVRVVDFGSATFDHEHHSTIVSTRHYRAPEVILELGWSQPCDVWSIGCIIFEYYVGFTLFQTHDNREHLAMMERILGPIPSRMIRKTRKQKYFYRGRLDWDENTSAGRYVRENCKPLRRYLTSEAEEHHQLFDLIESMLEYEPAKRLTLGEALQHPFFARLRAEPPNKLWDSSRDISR
Dual specificity mitogen-activated protein kinase kinase 1, sequence (Q02750 whole entry): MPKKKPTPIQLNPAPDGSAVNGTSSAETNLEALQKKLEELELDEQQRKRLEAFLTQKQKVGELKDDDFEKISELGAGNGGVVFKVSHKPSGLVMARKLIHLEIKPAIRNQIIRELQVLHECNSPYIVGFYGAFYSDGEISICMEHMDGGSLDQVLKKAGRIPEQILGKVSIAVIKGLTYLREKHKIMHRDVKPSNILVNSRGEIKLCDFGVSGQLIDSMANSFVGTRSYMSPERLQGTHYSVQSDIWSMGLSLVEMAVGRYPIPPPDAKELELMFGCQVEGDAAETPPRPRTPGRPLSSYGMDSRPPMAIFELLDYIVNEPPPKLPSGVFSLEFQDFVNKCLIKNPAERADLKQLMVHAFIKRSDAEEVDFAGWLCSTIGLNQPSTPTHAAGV
Ephrin type-A receptor 5, sequence (P54756 whole entry): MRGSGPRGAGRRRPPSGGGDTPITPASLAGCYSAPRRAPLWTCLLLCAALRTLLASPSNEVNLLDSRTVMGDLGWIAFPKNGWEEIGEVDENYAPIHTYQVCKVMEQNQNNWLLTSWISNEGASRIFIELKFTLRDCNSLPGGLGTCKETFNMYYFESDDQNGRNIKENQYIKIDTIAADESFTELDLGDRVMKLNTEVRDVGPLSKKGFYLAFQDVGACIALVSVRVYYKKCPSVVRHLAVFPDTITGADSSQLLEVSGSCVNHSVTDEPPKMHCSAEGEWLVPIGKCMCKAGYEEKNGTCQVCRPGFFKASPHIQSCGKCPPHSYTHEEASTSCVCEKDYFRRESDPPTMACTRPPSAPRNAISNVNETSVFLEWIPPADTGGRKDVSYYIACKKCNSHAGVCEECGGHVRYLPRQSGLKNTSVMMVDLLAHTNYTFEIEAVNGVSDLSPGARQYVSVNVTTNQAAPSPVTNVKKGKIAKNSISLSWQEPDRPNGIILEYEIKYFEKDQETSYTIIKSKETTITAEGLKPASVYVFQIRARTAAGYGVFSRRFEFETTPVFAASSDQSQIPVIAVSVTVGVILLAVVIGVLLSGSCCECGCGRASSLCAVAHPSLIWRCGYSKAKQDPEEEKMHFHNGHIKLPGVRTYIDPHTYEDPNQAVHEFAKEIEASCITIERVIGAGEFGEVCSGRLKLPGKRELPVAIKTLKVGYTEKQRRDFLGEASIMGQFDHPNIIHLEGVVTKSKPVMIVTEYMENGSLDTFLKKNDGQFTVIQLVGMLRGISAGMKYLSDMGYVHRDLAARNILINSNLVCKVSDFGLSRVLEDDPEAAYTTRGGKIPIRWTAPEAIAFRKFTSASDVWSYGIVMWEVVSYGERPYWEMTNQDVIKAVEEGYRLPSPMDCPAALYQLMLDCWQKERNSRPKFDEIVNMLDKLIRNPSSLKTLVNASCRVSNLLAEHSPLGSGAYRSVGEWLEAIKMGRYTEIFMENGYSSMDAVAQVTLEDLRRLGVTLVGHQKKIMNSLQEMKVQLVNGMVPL

| Kd [1] | Kd [2] | Kd [3] | Kd [4] | Kd [5] | Kd [6] | Kd [7] | Kd [8] | Kd [9] | Kd [10] | Kd [11] | Kd [12] | Kd [13] | Kd [14] | Kd [15] | Kd [16] | Kd [17] | Compound |
| --- | --- | --- | --- | --- | --- | --- | --- | --- | --- | --- | --- | --- | --- | --- | --- | --- | --- |
| > 30 µM (inactive) | > 30 µM (inactive) | > 30 µM (inactive) | > 30 µM (inactive) | > 30 µM (inactive) | > 30 µM (inactive) | > 30 µM (inactive) | > 30 µM (inactive) | > 30 µM (inactive) | > 30 µM (inactive) | > 30 µM (inactive) | > 30 µM (inactive) | > 30 µM (inactive) | > 30 µM (inactive) | > 30 µM (inactive) | > 30 µM (inactive) | > 30 µM (inactive) | COc1ccc(S(=O)(=O)N(C(C)=O)c2ccccc2/C=C/c2cc[n+]([O-])cc2)cc1 [HMN-214] |
| > 30 µM (inactive) | > 30 µM (inactive) | > 30 µM (inactive) | > 30 µM (inactive) | > 30 µM (inactive) | > 30 µM (inactive) | > 30 µM (inactive) | > 30 µM (inactive) | > 30 µM (inactive) | > 30 µM (inactive) | > 30 µM (inactive) | > 30 µM (inactive) | > 30 µM (inactive) | > 30 µM (inactive) | > 30 µM (inactive) | > 30 µM (inactive) | > 30 µM (inactive) | COc1ncc(-c2ccc3nccc(-c4ccnnc4)c3c2)cc1NS(=O)(=O)c1ccc(F)cc1F [OMIPALISIB] |
| > 30 µM (inactive) | > 30 µM (inactive) | > 30 µM (inactive) | > 30 µM (inactive) | > 30 µM (inactive) | > 30 µM (inactive) | > 30 µM (inactive) | > 30 µM (inactive) | > 30 µM (inactive) | > 30 µM (inactive) | > 30 µM (inactive) | > 30 µM (inactive) | > 30 µM (inactive) | > 30 µM (inactive) | > 30 µM (inactive) | > 30 µM (inactive) | > 30 µM (inactive) | Cc1cnc(NC(=O)Nc2cc(Br)c(C)cc2OC[C@@H]2CNCCO2)cn1 [RABUSERTIB] |
| > 30 µM (inactive) | > 30 µM (inactive) | > 30 µM (inactive) | > 30 µM (inactive) | > 30 µM (inactive) | > 30 µM (inactive) | > 30 µM (inactive) | > 30 µM (inactive) | > 30 µM (inactive) | > 30 µM (inactive) | > 30 µM (inactive) | > 30 µM (inactive) | > 30 µM (inactive) | > 30 µM (inactive) | > 30 µM (inactive) | > 30 µM (inactive) | > 30 µM (inactive) | CO[C@H]1C[C@@H]2CC[C@@H](C)[C@@](O)(O2)C(=O)C(=O)N2CCCC[C@H]2C(=O)O[C@H]([C@H](C)C[C@@H]2CC[C@@H](OP(C)(C)=O)[C@H](OC)C2)CC(=O)[C@H](C)/C=C(\C)[C@@H](O)[C@@H](OC)C(=O)[C@H](C)C[C@H](C)/C=C/C=C/C=C/1C [RIDAFOROLIMUS] |
| > 30 µM (inactive) | > 30 µM (inactive) | > 30 µM (inactive) | > 30 µM (inactive) | > 30 µM (inactive) | > 30 µM (inactive) | > 30 µM (inactive) | > 30 µM (inactive) | > 30 µM (inactive) | > 30 µM (inactive) | > 30 µM (inactive) | > 30 µM (inactive) | > 30 µM (inactive) | > 30 µM (inactive) | > 30 µM (inactive) | > 30 µM (inactive) | > 30 µM (inactive) | N#CC1(c2ccc(NC(=O)c3cccnc3NCc3ccncc3)cc2)CCCC1 [RIVOCERANIB] |
| > 30 µM (inactive) | > 30 µM (inactive) | > 30 µM (inactive) | > 30 µM (inactive) | > 30 µM (inactive) | > 30 µM (inactive) | > 30 µM (inactive) | > 30 µM (inactive) | > 30 µM (inactive) | > 30 µM (inactive) | > 30 µM (inactive) | > 30 µM (inactive) | > 30 µM (inactive) | > 30 µM (inactive) | > 30 µM (inactive) | > 30 µM (inactive) | > 30 µM (inactive) | O=c1[nH]ccc2cc(OC3CCNCC3)ccc12 [SAR-407899 FREE BASE] |
| > 30 µM (inactive) | > 30 µM (inactive) | > 30 µM (inactive) | > 30 µM (inactive) | > 30 µM (inactive) | > 30 µM (inactive) | > 30 µM (inactive) | > 30 µM (inactive) | > 30 µM (inactive) | > 30 µM (inactive) | > 30 µM (inactive) | > 30 µM (inactive) | > 30 µM (inactive) | > 30 µM (inactive) | > 30 µM (inactive) | > 30 µM (inactive) | > 30 µM (inactive) | Cn1cc(-c2cnn3c(N)c(Br)c([C@@H]4CCCNC4)nc23)cn1 [SCH-900776] |
| > 30 µM (inactive) | > 30 µM (inactive) | > 30 µM (inactive) | > 30 µM (inactive) | > 30 µM (inactive) | > 30 µM (inactive) | > 30 µM (inactive) | > 30 µM (inactive) | > 30 µM (inactive) | > 30 µM (inactive) | > 30 µM (inactive) | > 30 µM (inactive) | > 30 µM (inactive) | > 30 µM (inactive) | > 30 µM (inactive) | > 30 µM (inactive) | > 30 µM (inactive) | CO[C@H]1C[C@@H]2CC[C@@H](C)[C@@](O)(O2)C(=O)C(=O)N2CCCC[C@H]2C(=O)O[C@H]([C@H](C)C[C@@H]2CC[C@@H](OC(=O)C(C)(CO)CO)[C@H](OC)C2)CC(=O)[C@H](C)/C=C(\C)[C@@H](O)[C@@H](OC)C(=O)[C@H](C)C[C@H](C)/C=C/C=C/C=C/1C [TEMSIROLIMUS] |
| > 30 µM (inactive) | > 30 µM (inactive) | > 30 µM (inactive) | > 30 µM (inactive) | > 30 µM (inactive) | > 30 µM (inactive) | > 30 µM (inactive) | > 30 µM (inactive) | > 30 µM (inactive) | > 30 µM (inactive) | > 30 µM (inactive) | > 30 µM (inactive) | > 30 µM (inactive) | > 30 µM (inactive) | > 30 µM (inactive) | > 30 µM (inactive) | > 30 µM (inactive) | O=C(Cc1ccc(-c2ccc(OCCN3CCOCC3)cc2)cn1)NCc1ccccc1 [TIRBANIBULIN] |
